Here are results for seven compounds from paper PMC4317581, “Virtual Screening of Acetylcholinesterase Inhibitors Using the Lipinski's Rule of Five and ZINC Databank” (BioMed Research International, 2015).

Common to all, as to assay type: biochemical
Test [1] deals with AChE from Electrophorus electricus (EeAChE) (Electrophorus electricus, UniProt O42275). Nature of the test: Ellman cholinesterase assay, purified AChE from Electrophorus electricus. As to the method:
(§1) The compounds selected as inhibitors of AChE activity were obtained commercially from MolPort (http://www.molport.com/buy-chemicals/index). They were dissolved in dimethyl sulfoxide (DMSO), at a final concentration of 0.1%.
(§2) The cholinesterase activities were measured based on Ellman et al.'s method. The increase of absorbance was monitored at 412 nm in a reaction mixture containing 10 mM potassium phosphate buffer, pH 7.4, and 1 mM DTNB [5,5′-dithiobis-(2-nitrobenzoic) acid] (from Sigma) in the presence of one of the following enzymes: purified AChE from Electrophorus electricus (EeAChE)—0.05 U/ml, AChE from human erythrocytes (HsAChE), AChE from Danio rerio (DrAChE)—0.5 μg, and purified BChE from Equus ferus (EfBChE)—0.05 U/mL. The compounds (or only 0.1% DMSO for the control group) were preincubated with the enzyme during 10 minutes at room temperature, and the reaction was started with the addition of acetylthiocholine or butyrylthiocholine (0.8 mM).
(§3) The IC50 values were determined by nonlinear regression (log concentration-inhibition curves). Data were analyzed by one-way analysis of variance (ANOVA) followed by Student-Newman-Keuls test. Statistical significance was set at P < 0.05. The statistics have been performed using GraphPad Prism 5 (version 5.01, GraphPad Software, Inc., USA).
(In general: DTNB colorimetry detects thiols as they appear.)

Test [2] addresses T1, AChE from Danio rerio (DrAChE) (Danio rerio, UniProt Q9DDE3).
T1 construct: zebrafish brains were homogenized on ice in 60 volumes (v/w) of Tris-citrate buffer; from tissue; host or cells: zebrafish brain homogenate
Nature of the test: Ellman cholinesterase assay, zebrafish brain homogenate AChE. As for the experimental part: as §1, §2
The DrAChE assay was performed as previously described by Rosemberg et al. (2010). Briefly, zebrafish brains were homogenized on ice in 60 volumes (v/w) of Tris-citrate buffer (50 mM Tris, 2 mM EDTA, 2 mM EGTA, and pH 7.4, with citric acid) using a Potter-Elvehjem-type glass homogenizer. Samples (0.5 μg protein) were preincubated for 10 min at 25°C and the enzyme activity was further assessed in the absence and the presence of the selected compounds.
as §3

Test [3] addresses T2, AChE from human erythrocytes (HsAChE) (Homo sapiens, UniProt P22303).
T2 construct: from tissue; host or cells: human erythrocyte ghosts from blood of healthy donors
Nature of the test: Ellman cholinesterase assay, human erythrocyte ghost AChE. As to the method: as §1, §2
Haemoglobin-free erythrocyte ghosts were prepared according to the method previously described. Blood of nonfasted healthy voluntary donors was collected. Heparinized human blood was centrifuged at 3000 g for 10 min. The packed erythrocytes were diluted in 20 volumes (w/v) of hypotonic sodium/potassium phosphate buffer (6.7 mM, pH 7.4) to facilitate the hemolysis, followed by centrifugation at 30.000 g for 30 min at 4°C. The supernatant was removed and the pellet resuspended in hypotonic phosphate buffer. After two additional washing cycles, the pellet was resuspended in sodium/potassium phosphate buffer (0.1 M, pH 7.4) and then centrifuged again at 30.000 g for 30 min at 4°C. The supernatant was gently removed and the pellet was stored. Aliquots of the erythrocyte ghosts were stored at −20°C until usage within one week. The sample was diluted 10 times for AChE activity measurement. Fifty μL of the stored ghost preparation, in a final volume of 200 μL, was used for the assay. Hemoglobin content from ghost membranes was measured at 540 nm as the cyano-met-Hb form, but no hemoglobin was detected.
as §3

The target in test [4] is BChE from Equus ferus (EfBChE) (Equus caballus, UniProt P81908). The test is described as follows: Ellman cholinesterase assay, purified BChE from Equus ferus. As for the experimental part: as §1, §2, §3
Sequence of BChE from Equus ferus (EfBChE) (P81908 whole entry): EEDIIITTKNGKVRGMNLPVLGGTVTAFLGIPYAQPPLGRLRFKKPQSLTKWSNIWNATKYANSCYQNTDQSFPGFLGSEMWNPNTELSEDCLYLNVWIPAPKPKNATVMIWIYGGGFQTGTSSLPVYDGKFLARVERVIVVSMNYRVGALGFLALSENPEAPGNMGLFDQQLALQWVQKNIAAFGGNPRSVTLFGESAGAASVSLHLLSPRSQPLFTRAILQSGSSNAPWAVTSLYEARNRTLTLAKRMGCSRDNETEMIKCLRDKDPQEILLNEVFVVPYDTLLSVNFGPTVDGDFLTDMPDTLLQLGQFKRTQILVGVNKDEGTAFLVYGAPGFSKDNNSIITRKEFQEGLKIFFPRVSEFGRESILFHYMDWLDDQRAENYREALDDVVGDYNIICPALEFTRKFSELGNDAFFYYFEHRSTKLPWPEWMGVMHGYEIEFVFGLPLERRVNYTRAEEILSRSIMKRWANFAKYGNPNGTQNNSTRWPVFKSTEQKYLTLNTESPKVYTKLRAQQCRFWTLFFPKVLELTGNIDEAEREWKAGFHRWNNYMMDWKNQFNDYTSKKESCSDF
Where [5] appears, read: purified EeAChE 0.05 U/ml, 10 min preincubation, acetylthiocholine 0.8 mM, read-out: IC50 EeAChE.
[6] abbreviates: zebrafish brain homogenate 0.5 μg protein, 10 min preincubation, read-out: IC50 DrAChE.
[7] abbreviates: human erythrocyte ghosts, 10 min preincubation, read-out: IC50 HsAChE.
The mark [8] stands for this setting: purified BChE 0.05 U/mL, 10 min preincubation, butyrylthiocholine 0.8 mM, read-out: IC50 EcBChE.

SMILES strings stand for the structures. Where two headings read alike, the source gives them in different places.

T2 sequence (P22303 other isoform, or with tags, fused parts or gaps): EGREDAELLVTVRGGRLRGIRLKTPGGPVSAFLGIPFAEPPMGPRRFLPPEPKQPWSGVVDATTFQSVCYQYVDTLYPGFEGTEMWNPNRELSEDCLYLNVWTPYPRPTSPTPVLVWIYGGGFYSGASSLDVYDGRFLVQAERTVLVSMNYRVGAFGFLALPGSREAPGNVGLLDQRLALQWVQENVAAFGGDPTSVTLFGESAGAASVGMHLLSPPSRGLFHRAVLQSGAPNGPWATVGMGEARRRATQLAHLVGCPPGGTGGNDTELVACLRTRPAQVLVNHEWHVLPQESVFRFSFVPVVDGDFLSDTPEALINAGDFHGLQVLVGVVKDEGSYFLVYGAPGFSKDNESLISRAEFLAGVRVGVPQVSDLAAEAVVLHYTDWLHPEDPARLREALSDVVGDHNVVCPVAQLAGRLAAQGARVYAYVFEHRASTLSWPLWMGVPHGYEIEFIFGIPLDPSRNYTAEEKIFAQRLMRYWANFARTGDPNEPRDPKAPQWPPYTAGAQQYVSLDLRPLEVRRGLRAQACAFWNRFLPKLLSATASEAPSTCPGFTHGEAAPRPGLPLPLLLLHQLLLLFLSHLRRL
T1 sequence (Q9DDE3 24-634): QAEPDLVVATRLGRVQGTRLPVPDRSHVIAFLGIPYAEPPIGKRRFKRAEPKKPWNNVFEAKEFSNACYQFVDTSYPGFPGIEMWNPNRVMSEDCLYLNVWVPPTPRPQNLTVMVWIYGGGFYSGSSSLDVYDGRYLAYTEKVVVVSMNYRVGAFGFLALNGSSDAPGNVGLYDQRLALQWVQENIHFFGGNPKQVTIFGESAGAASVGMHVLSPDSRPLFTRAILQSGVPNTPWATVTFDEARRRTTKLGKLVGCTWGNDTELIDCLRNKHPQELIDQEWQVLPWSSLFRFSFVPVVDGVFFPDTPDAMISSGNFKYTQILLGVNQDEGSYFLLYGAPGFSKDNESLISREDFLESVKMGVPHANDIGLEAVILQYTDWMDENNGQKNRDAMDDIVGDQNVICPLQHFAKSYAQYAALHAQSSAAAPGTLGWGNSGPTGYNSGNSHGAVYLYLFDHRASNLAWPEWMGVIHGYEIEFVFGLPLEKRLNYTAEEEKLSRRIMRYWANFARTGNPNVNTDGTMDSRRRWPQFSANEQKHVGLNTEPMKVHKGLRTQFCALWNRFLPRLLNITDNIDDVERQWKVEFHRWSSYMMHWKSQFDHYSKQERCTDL
Sequence of AChE from Electrophorus electricus (EeAChE) (O42275 24-633): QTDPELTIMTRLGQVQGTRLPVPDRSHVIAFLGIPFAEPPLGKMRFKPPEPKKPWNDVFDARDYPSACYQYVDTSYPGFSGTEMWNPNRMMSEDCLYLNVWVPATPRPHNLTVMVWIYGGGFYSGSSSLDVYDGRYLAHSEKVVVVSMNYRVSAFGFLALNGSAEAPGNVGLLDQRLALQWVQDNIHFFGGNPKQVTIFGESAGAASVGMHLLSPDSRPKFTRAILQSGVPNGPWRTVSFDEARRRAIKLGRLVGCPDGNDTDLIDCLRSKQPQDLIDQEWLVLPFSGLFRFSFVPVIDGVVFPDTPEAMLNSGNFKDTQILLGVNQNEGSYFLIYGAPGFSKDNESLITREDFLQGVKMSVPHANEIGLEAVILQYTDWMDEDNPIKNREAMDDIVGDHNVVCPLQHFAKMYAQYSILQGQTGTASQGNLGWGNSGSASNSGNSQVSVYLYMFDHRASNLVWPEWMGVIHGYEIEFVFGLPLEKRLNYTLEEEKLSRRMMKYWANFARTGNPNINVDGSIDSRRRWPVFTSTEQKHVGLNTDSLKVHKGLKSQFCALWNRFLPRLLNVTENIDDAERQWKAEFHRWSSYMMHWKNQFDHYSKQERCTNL

The term IC50 denotes the concentration at which inhibition is half-maximal. Consider `O=c1ccc2ccc(OCC[N+]34CCC(CC3)C(C(O)(c3ccccc3)c3ccccc3)C4)cc2o1` (stereo not shown) [A], for which the half-maximal inhibitory concentration (IC50) in test [1] turned out to be 36.3 ± 3.14 µM; in test [2], 26.2 ± 3.98 µM; in test [3], 13.2 ± 1.38 µM; in test [4] it was 22.2 ± 1.06 µM.

On to `COc1c2c(cc3c1[C@H](CC(=O)c1cc4c(cc1C)C(C)(C)[C@@H](C)C4(C)C)[N+](C)(C)CC3)OCO2` [B], for which the IC50 is 578 ± 84.3 µM in test [1] (setting [5]), 21.2 ± 1.44 µM in test [2] (setting [6]), 37.5 ± 1.97 µM in test [3] (setting [7]) and 4.02 ± 0.78 µM in test [4] (setting [8]).

Take `CCCC[N+]1(CC#CC2(O)c3ccccc3-c3ccccc32)CCC(c2ccccc2)C1` (stereo not shown) [C]: the 50% inhibitory concentration (IC50) in test [1] (setting [5]) was found to be 761 ± 128 µM; in test [2] (setting [6]) it was 239 ± 2.95 µM; in test [3] (setting [7]) it was 92.1 ± 39.7 µM; in test [4] (setting [8]), 0.75 ± 0.18 µM.

In the case of `C[N+]1(Cc2ccc(-c3nnc(-c4ccc([N+](=O)[O-])cc4)o3)cc2)CCc2[nH]c3ccccc3c2C1` (stereo not shown) [Compound D], the IC50 was found to be 5.39 ± 0.55 µM in test [1] (setting [5]), 2.31 ± 0.29 µM in test [2] (setting [6]), 1.69 ± 0.46 µM in test [3] (setting [7]) and 5.64 ± 2.47 µM in test [4] (setting [8]).

In the case of `c1ccc(-c2c3c(cc4ccccc24)C[N+]2(CCCC2)C3)cc1` [Compound E], the half-inhibitory concentration (IC50) was 342 ± 54.6 µM in test [1] (setting [5]), 26.4 ± 5.3 µM in test [2] (setting [6]), 512 ± 301 µM in test [3] (setting [7]) and 12.7 ± 7.66 µM in test [4] (setting [8]).

In the case of `C[N+]1(C)CCC2(CC1)Oc1ccccc1C1CC(c3ccc(-c4ccccc4)cc3)=NN12` (stereo not shown) [F], the IC50 in test [1] was found to be 84.2 ± 6 µM; in test [2], 192 ± 29.8 µM; in test [3] it was 151 ± 61.7 µM; in test [4] it was 32.9 ± 3.88 µM.

For the compound `C[N+]1(C)CCC2(CC1)Oc1ccccc1C1CC(c3ccc4ccccc4c3)=NN12` (stereo not shown) [G], the 50% inhibitory concentration (IC50) in test [1] is 344 ± 50.7 µM; in test [2] it was 49.8 ± 15.3 µM; in test [3], 70 ± 7.96 µM; in test [4], 9.51 ± 6.94 µM.
